Assay results as given in patent US9090593B2, “Bicyclic compounds as Pim inhibitors” (AMGEN INC., priority 2010, dated 2015).
Read-outs that look alike come from different tables or passages of the source.

Assays:
[1] = molecular target: T1, full length recombinant Pim-1 protein (Homo sapiens, UniProt P11309); experiment: Pim-1 enzyme assay (HTRF, phosphorylation of biotinylated-BAD (S112) peptide); format: biochemical; details: enzyme assay, Pim-1; read-out: Pim_1_IC50
T1 construct: by full length recombinant Pim-1, Pim-2, or Pim-3 protein; hexahistidine tag followed by a thrombin cleavage site (N); made in house; host or cells: Sf9 (baculovirus) or E. coli (pET28)
In short: (§1)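 Each full-length human Pim enzyme phosphorylates a biotinylated BAD (S112) peptide, and the product is sensed by Eu anti-phospho-BAD antibody with streptavidin-APC after quenching with 3 mM EDTA. Conditions: 60 mM Hepes pH 7.0, 0.05% BSA, 2 mM DTT.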

[2] = molecular target: T2, full length recombinant Pim-2 protein (Homo sapiens, UniProt Q9P1W9); experiment: Pim-2 enzyme assay (HTRF, phosphorylation of biotinylated-BAD (S112) peptide); format: biochemical; details: enzyme assay, Pim-2; read-out: Pim2_IC50
T2 construct: by full length recombinant Pim-1, Pim-2, or Pim-3 protein; hexahistidine tag followed by a thrombin cleavage site (N); made in house; host or cells: Sf9 (baculovirus) or E. coli (pET28)
In short: as §1

[3] = molecular target: T3, full length recombinant Pim-3 protein (Homo sapiens, UniProt Q86V86); experiment: Pim-3 enzyme assay (HTRF, phosphorylation of biotinylated-BAD (S112) peptide); format: biochemical; details: read-out: Pim3 IC50
T3 construct: by full length recombinant Pim-1, Pim-2, or Pim-3 protein; purchased Millipore (UK)
In short: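 HTRF read-out, streptavidin-APC plus Eu-labelled anti-phospho-BAD (S112) antibody, measures BAD peptide phosphorylation by full-length recombinant Pim-3. Buffer: 60 mM Hepes pH 7.0, 2 mM DTT, 0.05% BSA; EDTA (3 mM) stop. Percent of control per well, IC50 by 4-parameter logistic fit.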

[4] = molecular target: T4, Pim-1 stably transfected into the U2OS human osteogenic sarcoma line (Homo sapiens, UniProt P11309); experiment: Pim cell assay, phospho-BAD normalized against total BAD, U2OS stably transfected with Pim-1; format: cell-based; details: read-out: Pim1_Cell_IC50
T4 construct: expressed in transfected cells; host or cells: U2OS human osteogenic sarcoma line
In short: (§2)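 Read-out is phospho-BAD relative to total BAD, by MSD electrochemiluminescence on lysates, expressed as % phosphoprotein = (2×phospho)/(phospho+total)×100. Engineered U2OS lines carrying stably transfected Pim-1 or Pim-2 received 10-point compound dilutions at 0.3% final DMSO after overnight culture at 37 °C; DMSO-only wells served as high control.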

[5] = molecular target: T5, Pim-2 stably transfected into the U2OS human osteogenic sarcoma line (Homo sapiens, UniProt Q9P1W9); experiment: Pim cell assay, phospho-BAD normalized against total BAD, U2OS stably transfected with Pim-2; format: cell-based; details: read-out: Pim2_Cell_IC50; also: high dose 31.6 µM
T5 construct: expressed in transfected cells; host or cells: U2OS human osteogenic sarcoma line
In short: as §2

[6] = U2OS cells stably transfected with Pim-1, phospho-BAD, high dose […]
[7] = U2OS cells stably transfected with Pim-2, phospho-BAD, high dose […]

T5 sequence (Q9P1W9 whole entry): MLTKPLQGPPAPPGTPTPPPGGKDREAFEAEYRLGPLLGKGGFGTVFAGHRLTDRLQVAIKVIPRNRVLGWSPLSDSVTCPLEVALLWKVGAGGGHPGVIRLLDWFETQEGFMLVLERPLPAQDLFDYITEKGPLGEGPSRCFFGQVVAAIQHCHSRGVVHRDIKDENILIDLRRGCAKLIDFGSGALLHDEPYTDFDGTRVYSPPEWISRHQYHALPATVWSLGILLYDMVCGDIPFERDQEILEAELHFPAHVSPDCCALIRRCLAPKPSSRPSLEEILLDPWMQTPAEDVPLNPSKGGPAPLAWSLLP
T2 sequence (Q9P1W9 whole entry): as above
T4 sequence (P11309 whole entry): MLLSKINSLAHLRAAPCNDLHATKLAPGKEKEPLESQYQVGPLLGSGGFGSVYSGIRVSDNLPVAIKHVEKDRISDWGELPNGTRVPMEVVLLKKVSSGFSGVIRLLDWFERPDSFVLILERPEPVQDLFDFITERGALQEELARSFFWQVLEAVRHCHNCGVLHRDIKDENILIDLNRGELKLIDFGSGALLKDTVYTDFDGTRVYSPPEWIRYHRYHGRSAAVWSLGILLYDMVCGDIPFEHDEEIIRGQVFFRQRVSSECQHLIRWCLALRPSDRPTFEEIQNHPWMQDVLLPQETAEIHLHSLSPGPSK
T1 sequence (P11309 whole entry): as above

IC50 [1] [nM]	IC50 [2] [nM]	IC50 [3] [nM]	IC50 [4, 6] [nM]	IC50 [5, 7] [nM]	IC50 [4] [nM]	IC50 [5] [nM]	Compound
26	243	69	–	–	1080	> 31600	Fc1cccc(F)c1-c1ccc2[nH]cc(-c3cncc(NC4CCCNC4)c3)c2n1 (stereo not shown) [Example 33, 5-(5-(2,6-difluorophenyl)-1H-pyrrolo[3,2-b]pyridin-3-yl)-N-(piperidin-3-yl)pyridin-3-amine]
27	380	29	–	–	1010	> 31600	NC1CCN(c2cncc(-c3c[nH]c4ccc(-c5ccccc5F)nc34)c2)CC1 [Example 34, 1-(5-(5-(2-fluorophenyl)-1H-pyrrolo[3,2-b]pyridin-3-yl)pyridin-3-yl)piperidin-4-amine]
6	7	2	2060	6610	–	–	NC1CCN(c2cncc(-c3n[nH]c4ccc(-c5cc(C(=O)NCc6ccccc6)ccc5F)cc34)n2)CC1 [Example 36, 3-(3-(6-(4-amino-1-piperidinyl)-2-pyrazinyl)-1H-indazol-5-yl)-N-benzyl-4-fluorobenzamide]
13	19	5	573	3530	–	–	CC(C)(C)NC(=O)c1ccc(F)c(-c2ccc3[nH]nc(-c4cncc(N5CCC(N)CC5)n4)c3c2)c1 [Example 37, 3-(3-(6-(4-amino-1-piperidinyl)-2-pyrazinyl)-1H-indazol-5-yl)-N-tert-butyl-4-fluorobenzamide]
7	9	3	1210	4740	–	–	CCCCNC(=O)c1ccc(F)c(-c2ccc3[nH]nc(-c4cncc(N5CCC(N)CC5)n4)c3c2)c1 [Example 38, 3-(3-(6-(4-amino-1-piperidinyl)-2-pyrazinyl)-1H-indazol-5-yl)-N-butyl-4-fluorobenzamide]
7	10	4	1620	6630	–	–	CCCNC(=O)c1ccc(F)c(-c2ccc3[nH]nc(-c4cncc(N5CCC(N)CC5)n4)c3c2)c1 [Example 39, 3-(3-(6-(4-amino-1-piperidinyl)-2-pyrazinyl)-1H-indazol-5-yl)-4-fluoro-N-propylbenzamide]
24	13	16	2370	7060	–	–	CN(C)C(=O)c1ccc(F)c(-c2ccc3[nH]nc(-c4cncc(N5CCC(N)CC5)n4)c3c2)c1 [Example 40, 3-(3-(6-(4-amino-1-piperidinyl)-2-pyrazinyl)-1H-indazol-5-yl)-4-fluoro-N,N-dimethylbenzamide]
35	29	26	1400	8520	–	–	NC1CCN(c2cncc(-c3n[nH]c4ccc(-c5cc(C(=O)N6CCCCC6)ccc5F)cc34)n2)CC1 [Example 41, 1-(6-(5-(2-fluoro-5-(1-piperidinylcarbonyl)phenyl)-1H-indazol-3-yl)-2-pyrazinyl)-4-piperidinamine]
32	41	20	2800	9840	–	–	NC1CCN(c2cncc(-c3n[nH]c4ccc(-c5cc(C(=O)N6CCOCC6)ccc5F)cc34)n2)CC1 [Example 42, 1-(6-(5-(2-fluoro-5-(4-morpholinylcarbonyl)phenyl)-1H-indazol-3-yl)-2-pyrazinyl)-4-piperidinamine]

The remaining lines, values behind:

Compound	IC50 [1] [nM]	IC50 [2] [nM]	IC50 [3] [nM]	IC50 [4, 6] [nM]	IC50 [5, 7] [nM]	IC50 [4] [nM]	IC50 [5] [nM]
COc1cccc(-c2ccc3[nH]nc(-c4cncc(N5CCC(N)CC5)n4)c3c2)c1F [Example 4, 1-(6-(5-(2-fluoro-3-methoxyphenyl)-1H-indazol-3-yl)pyrazin-2-yl)piperidin-4-amine]	2	35	4	234	> 31600	–	–
NC1CCN(c2cncc(-c3n[nH]c4ccc(-c5cccc(F)c5)cc34)n2)CC1 [Example 7, 1-(6-(5-(3-Fluorophenyl)-1H-indazol-3-yl)pyrazin-2-yl)piperidin-4-amine]	4	25	3	748	> 31600	–	–
NC1CCN(c2cncc(-c3n[nH]c4ccc(N5CCCC5=O)cc34)n2)CC1 [Example 8, 1-(3-(6-(4-Aminopiperidin-1-yl)pyrazin-2-yl)-1H-indazol-5-yl)pyrrolidin-2-one]	12	41	6	2440	> 31600	–	–
COc1cc(-c2ccc3[nH]nc(-c4cncc(N5CCC(N)CC5)n4)c3c2)nc(OC)n1 [Example 9, 1-(6-(5-(2,6-dimethoxypyrimidin-4-yl)-1H-indazol-3-yl)pyrazin-2-yl)piperidin-4-amine]	4	96	1	437	> 31600	–	–
CN(c1cncc(-c2n[nH]c3ccc(-c4c(F)cccc4F)cc23)n1)C1CCNCC1 [Example 17, 6-(5-(2,6-Difluorophenyl)-1H-indazol-3-yl)-N-methyl-N-(piperidin-4-yl)pyrazin-2-amine]	5	43	4	424	11000	–	–
NC1CCCN(c2cncc(-c3c[nH]c4ccc(-c5c(F)cccc5F)cc34)n2)C1 (stereo not shown) [Example 21, 1-(6-(5-(2,6-difluorophenyl)-1H-indol-3-yl)pyrazin-2-yl)piperidin-3-amine]	3	98	5	1170	> 31600	–	–
NC1CCN(c2cncc(-c3c[nH]c4ccc(-c5c(F)cccc5F)cc34)n2)CC1 [Example 22, 1-(6-(5-(2,6-difluorophenyl)-1H-indol-3-yl)pyrazin-2-yl)piperidin-4-amine]	2	18	5	439	7110	–	–
Fc1cccc(F)c1-c1ccc2[nH]cc(-c3cncc(O[C@@H]4CCCNC4)n3)c2c1 [Example 23, (R)-5-(2,6-difluorophenyl)-3-(6-(piperidin-3-yloxy)pyrazin-2-yl)-1H-indole]	2	9	4	228	5040	–	–
Fc1cccc(F)c1-c1ccc2[nH]cc(-c3nccc(N[C@@H]4CCCNC4)n3)c2c1 [Example 24, (R)-2-(5-(2,6-difluorophenyl)-1H-indol-3-yl)-N-(piperidin-3-yl)pyrimidin-4-amine]	18	87	23	–	–	497	> 31600
CC(C)Oc1cncc(-c2ccc3[nH]cc(-c4cncc(N[C@@H]5CCCNC5)n4)c3c2)n1 [Example 25, (R)-6-(5-(6-isopropoxypyrazin-2-yl)-1H-indol-3-yl)-N-(piperidin-3-yl)pyrazin-2-amine]	4	198	15	–	–	405	24700
Fc1cccc(Cl)c1-c1ccc2[nH]cc(-c3cncc(O[C@@H]4CCCNC4)n3)c2c1 [Example 26, (R)-5-(2-chloro-6-fluorophenyl)-3-(6-(piperidin-3-yloxy)pyrazin-2-yl)-1H-indole bis(2,2,2-trifluoroacetate)]	4	23	6	514	3690	–	–
NC1CCN(c2cncc(-c3c[nH]c4ccc(-c5c(F)cccc5Cl)cc34)n2)CC1 [Example 27, 1-(6-(5-(2-chloro-6-fluorophenyl)-1H-indol-3-yl)pyrazin-2-yl)piperidin-4-amine bis(2,2,2-trifluoroacetate)]	10	48	9	780	27200	–	–
CC(C)Oc1cncc(-c2ccc3[nH]cc(-c4ccnc(N)c4)c3c2)n1 [Example 28, 4-(5-(6-(1-methylethoxy)-2-pyrazinyl)-1H-indol-3-yl)-2-pyridinamine]	32	271	12	–	–	1400	11300
COc1cncc(-c2ccc3[nH]nc(-c4cnc(N5CCC(N)CC5)s4)c3c2)c1 [Example 31, 1-(5-(5-(5-Methoxypyridin-3-yl)-1H-indazol-3-yl)thiazol-2-yl)piperidin-4-amine]	9	326	4	–	–	600	21600
